The values below come from ChEMBL document CHEMBL1138658, “Novel 2-aminotetralin and 3-aminochroman derivatives as selective serotonin 5-HT7 receptor agonists and antagonists” (J Med Chem, 2004).

In this experiment the target is 5-hydroxytryptamine receptor 4 (Cavia porcellus, UniProt O70528). The experiment is described as follows: Inhibition of [3H]- GR-113808 binding to guinea pig striatum 5-HT4 receptor. Format: tissue-based.
Sequence of 5-hydroxytryptamine receptor 4 (O70528 whole entry): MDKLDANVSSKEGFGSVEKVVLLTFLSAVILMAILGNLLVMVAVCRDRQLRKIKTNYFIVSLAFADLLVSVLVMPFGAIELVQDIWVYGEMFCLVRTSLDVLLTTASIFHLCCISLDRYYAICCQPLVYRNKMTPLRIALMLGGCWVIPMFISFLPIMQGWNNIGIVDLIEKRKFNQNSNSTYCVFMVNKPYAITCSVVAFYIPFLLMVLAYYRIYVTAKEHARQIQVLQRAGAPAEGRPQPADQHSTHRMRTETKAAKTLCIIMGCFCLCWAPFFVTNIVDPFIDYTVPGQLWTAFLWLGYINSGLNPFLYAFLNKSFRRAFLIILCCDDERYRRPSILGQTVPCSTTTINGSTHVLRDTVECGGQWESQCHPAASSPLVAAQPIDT

`COc1cccc(OC)c1-c1cccc2c1CC[C@H](N(C)C)C2`: the 50% inhibitory concentration (IC50) was > 1 µM.

A word on the IC50: it is the concentration needed to halve the response being measured. Higher therefore signals lower potency.
